Some test systems named below: KM12; 786-0; NCI-H226; LOX IMVI; HCT-116; CAKI-1; SN12C; MCF7; OVCAR-4; TK-10; SNB-75; SK-MEL-5; A549; IGROV-1; HCC 2998; MDA-N; SR; HOP-92; NCI-H522.
Holding throughout (assay): growth of human tumour cells (NCI), 48 h

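How tested: cells in 96-well plates exposed to compound for 48 hours at five concentrations. GI50 = concentration required for 50% inhibition of growth.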 Activity calls are given as the source filed them. No stated cut-off is given here; in the data, active = GI50 up to about 1.1 µM and inactive = higher.

On to `O=C(O)c1cc2ccccc2c2c1C(=O)c1ccccc1-2`, for which the GI50 in the experiment on KM12, in the experiment with 786-0, with NCI-H226, with LOX IMVI, in the experiment with HCT-116 and in the experiment with CAKI-1 was > 100 µM (inactive) each time. The GI50 was 75 µM (inactive) with SN12C; 98.9 µM (inactive) with MCF7; > 100 µM (inactive) in the experiment on OVCAR-4; > 100 µM (inactive) in the experiment with TK-10; > 100 µM (inactive) in the experiment with SNB-75; 79.3 µM (inactive) in the experiment with SK-MEL-5. For the same compound, the GI50 in the experiment with A549 was 75.9 µM (inactive); with IGROV-1 it was 58.7 µM (inactive); in the experiment with HCC 2998, > 100 µM (inactive); with MDA-N, > 100 µM (inactive); in the experiment on SR, 99.8 µM (inactive); in the experiment with HOP-92, 50.2 µM (inactive). Further, in the experiment on NCI-H522, the GI50 is 83.9 µM (inactive).

For `Cc1c(OCc2cccc3ccccc23)ccc2c(O)cc(=S)oc12`, the GI50 is 29.2 µM (inactive) in the experiment with KM12; 41.8 µM (inactive) with 786-0; 39.5 µM (inactive) in the experiment with NCI-H226; 22 µM (inactive) with LOX IMVI; 26.7 µM (inactive) in the experiment with HCT-116; 43 µM (inactive) in the experiment with CAKI-1. Besides, the GI50 is 48.4 µM (inactive) with SN12C; 45.7 µM (inactive) in the experiment with MCF7; 29 µM (inactive) in the experiment on OVCAR-4; 56.5 µM (inactive) with TK-10; 40.9 µM (inactive) in the experiment with SNB-75; 18.5 µM (inactive) with SK-MEL-5. Besides, the GI50 with A549 was 55.7 µM (inactive); in the experiment on IGROV-1, 42.6 µM (inactive); in the experiment with HCC 2998, 31.4 µM (inactive); with MDA-N, 43.4 µM (inactive); with SR, 28.7 µM (inactive); with HOP-92, 27.1 µM (inactive). Also, the GI50 in the experiment with NCI-H522 is 23.4 µM (inactive).

Consider `Clc1ccccc1-c1nc2cc(C34CC5CC(CC(C5)C3)C4)ccc2[nH]1`, for which the GI50 with KM12 was 53.2 µM (inactive); in the experiment on 786-0, 12.1 µM (inactive); in the experiment on NCI-H226, 25.4 µM (inactive); with LOX IMVI, 12.4 µM (inactive); in the experiment with HCT-116 it was 55.1 µM (inactive); in the experiment on CAKI-1 it was 31.4 µM (inactive). Moreover, the GI50 in the experiment on SN12C was 24.3 µM (inactive); with MCF7 it was 11.2 µM (inactive); in the experiment with OVCAR-4 it was 21.5 µM (inactive); in the experiment on TK-10, 19.1 µM (inactive); with SNB-75, 5.71 µM (inactive); with SK-MEL-5, 32.7 µM (inactive). For the same compound, the GI50 was 11.4 µM (inactive) in the experiment on A549; 17.3 µM (inactive) with IGROV-1; 49.3 µM (inactive) in the experiment with HCC 2998; 44 µM (inactive) in the experiment on MDA-N; 20.2 µM (inactive) with SR; 10.5 µM (inactive) in the experiment on HOP-92. Further, the GI50 in the experiment with NCI-H522 is 17 µM (inactive).

`CN(C)CCNC(=O)c1ccc(NCCCN(C)CCCNc2ccc(C(=O)NCCN(C)C)c3nc4ccc([N+](=O)[O-])cc4c(O)c23)c2c(O)c3cc([N+](=O)[O-])ccc3nc12`: the GI50 was 0.04 µM (active) in the experiment on KM12; < 0.0197 µM (active) in the experiment with 786-0; < 0.01 µM (active) in the experiment on NCI-H226; < 0.01 µM (active) in the experiment on LOX IMVI; < 0.01 µM (active) with HCT-116; 0.757 µM (active) with CAKI-1. Also, the GI50 is < 0.01 µM (active) with SN12C; < 0.01 µM (active) in the experiment on MCF7; 0.127 µM (active) in the experiment with OVCAR-4; 0.124 µM (active) in the experiment with TK-10; 0.14 µM (active) in the experiment with SNB-75; 0.0346 µM (active) in the experiment on SK-MEL-5. Further, the GI50 in the experiment with A549 is < 0.01 µM (active); with IGROV-1, < 0.01 µM (active); in the experiment on HCC 2998, 0.0347 µM (active); with MDA-N it was 0.155 µM (active); with SR it was 0.0311 µM (active); in the experiment with HOP-92 it was 0.0431 µM (active). Also, the GI50 in the experiment on NCI-H522 was < 0.01 µM (active).

Take `C[C@]12CC[C@H](O)CC1=CC[C@@H]1[C@@H]2CC[C@]2(C)c3nc(Cl)ccc3C[C@@H]12`: the GI50 was 22.2 µM (inactive) with KM12; 30.1 µM (inactive) in the experiment on 786-0; > 100 µM (inactive) in the experiment on NCI-H226; 57.1 µM (inactive) in the experiment with LOX IMVI; 47 µM (inactive) with HCT-116; > 100 µM (inactive) in the experiment on CAKI-1. For the same compound, the GI50 with SN12C is 44.8 µM (inactive); in the experiment on MCF7, > 64.7 µM (inactive); with OVCAR-4, > 53.7 µM (inactive); in the experiment with TK-10, > 56.8 µM (inactive); in the experiment with SNB-75, 25 µM (inactive); in the experiment with SK-MEL-5, > 46.2 µM (inactive). For the same compound, the GI50 in the experiment on A549 was 25 µM (inactive); in the experiment on IGROV-1 it was 61.5 µM (inactive); with HCC 2998, > 58.1 µM (inactive); in the experiment on MDA-N, 12.2 µM (inactive); in the experiment on SR, 11.4 µM (inactive); in the experiment with HOP-92 it was > 100 µM (inactive). Also, in the experiment on NCI-H522, the GI50 is 49.8 µM (inactive).

Consider `Nc1nccc(NCC2(CO)CC(CCc3ccccc3)C2)n1` (stereo not given), for which the GI50 in the experiment with KM12 was 17 µM (inactive); in the experiment with 786-0, 14.6 µM (inactive); in the experiment with NCI-H226 it was 16 µM (inactive); with LOX IMVI it was 14.3 µM (inactive); in the experiment with HCT-116, 10.8 µM (inactive); with CAKI-1, 11.8 µM (inactive). For the same compound, the GI50 with SN12C is 19.4 µM (inactive); with MCF7, 10 µM (inactive); with OVCAR-4, 20.7 µM (inactive); with TK-10 it was 12.5 µM (inactive); with SNB-75 it was 19.9 µM (inactive); in the experiment on SK-MEL-5 it was 4.06 µM (inactive). For the same compound, the GI50 in the experiment on A549 was 13 µM (inactive); in the experiment on IGROV-1, 13.2 µM (inactive); with HCC 2998, 19.5 µM (inactive); with MDA-N, 14.9 µM (inactive); in the experiment with SR, 8.71 µM (inactive); in the experiment on HOP-92 it was 4.93 µM (inactive). For the same compound, in the experiment on NCI-H522, the GI50 was 11.8 µM (inactive).

Regarding `Cn1c(-c2cccs2)cc(-c2cccs2)c1-c1cccs1`, the GI50 in the experiment with KM12 was 35.7 µM (inactive); in the experiment on 786-0 it was > 100 µM (inactive); in the experiment on NCI-H226, > 100 µM (inactive); with LOX IMVI, 35.8 µM (inactive); in the experiment with HCT-116, 34.6 µM (inactive); in the experiment with CAKI-1, > 100 µM (inactive). Moreover, the GI50 with SN12C is > 100 µM (inactive); in the experiment on MCF7 it was 2.82 µM (inactive); in the experiment on OVCAR-4 it was 39.1 µM (inactive); in the experiment on TK-10 it was > 100 µM (inactive); with SNB-75 it was 53.3 µM (inactive); in the experiment with SK-MEL-5 it was 14.5 µM (inactive). In addition, the GI50 is > 96.6 µM (inactive) with A549; 51.8 µM (inactive) in the experiment on IGROV-1; 37.8 µM (inactive) with HCC 2998; 55.2 µM (inactive) in the experiment on MDA-N; 13.6 µM (inactive) in the experiment with SR; > 100 µM (inactive) in the experiment on HOP-92. Moreover, in the experiment with NCI-H522, the GI50 is 21.3 µM (inactive).

As to `CN1CCN(C2=CC(=O)c3c(O)ccc(O)c3C2=O)CC1`, the GI50 with KM12 is 2.07 µM (inactive); with 786-0 it was 1.95 µM (inactive); in the experiment on NCI-H226 it was 1.59 µM (inactive); in the experiment with LOX IMVI it was 0.547 µM (active); in the experiment with HCT-116, 0.208 µM (active); in the experiment with CAKI-1, 1.6 µM (inactive). Besides, the GI50 is 1.64 µM (inactive) in the experiment on SN12C; 0.319 µM (active) in the experiment with MCF7; 2.02 µM (inactive) in the experiment with OVCAR-4; 2.74 µM (inactive) in the experiment on TK-10; 1.61 µM (inactive) with SNB-75; 0.179 µM (active) with SK-MEL-5. Further, the GI50 in the experiment on A549 is 1.79 µM (inactive); in the experiment with IGROV-1, 1.64 µM (inactive); in the experiment with HCC 2998, 1.82 µM (inactive); in the experiment with MDA-N, 0.175 µM (active); with SR, 1.38 µM (inactive); in the experiment with HOP-92 it was 1.86 µM (inactive). Besides, the GI50 in the experiment with NCI-H522 is 1.71 µM (inactive).

In the case of `Cc1cc(NS(=O)(=O)c2ccc(NC(=O)c3ccc4[nH]c5ccccc5c(=O)c4c3)cc2)no1`, the GI50 in the experiment with KM12 was 44.1 µM (inactive); in the experiment on 786-0, > 100 µM (inactive); in the experiment on NCI-H226 it was > 100 µM (inactive); in the experiment on LOX IMVI it was 46.5 µM (inactive); with HCT-116, > 100 µM (inactive); in the experiment with CAKI-1 it was > 100 µM (inactive). The GI50 with SN12C, with MCF7, with OVCAR-4, with TK-10, in the experiment on SNB-75 and in the experiment with SK-MEL-5 was > 100 µM (inactive) each time. Also, the GI50 was > 100 µM (inactive) in the experiment with A549; > 100 µM (inactive) in the experiment with IGROV-1; 85.3 µM (inactive) with HCC 2998; > 100 µM (inactive) with MDA-N; > 100 µM (inactive) with SR; 88.3 µM (inactive) with HOP-92. Besides, in the experiment with NCI-H522, the GI50 was > 100 µM (inactive).

On to `CCCCC1Cc2cc(OC)ccc2-c2n1c1cc(OC)ccc1[n+]2C.CCCCC1Cc2cc(OC)ccc2-c2n1c1ccc(OC)cc1[n+]2C` (stereo not given), for which the GI50 with KM12 was 0.873 µM (active); in the experiment on 786-0, 7.13 µM (inactive); in the experiment with NCI-H226 it was 2.92 µM (inactive); in the experiment on LOX IMVI, 2.87 µM (inactive); in the experiment on HCT-116, 3.22 µM (inactive); in the experiment with CAKI-1 it was 35.8 µM (inactive). In addition, the GI50 with SN12C is 0.975 µM (active); with MCF7, 0.953 µM (active); in the experiment on OVCAR-4, 2.31 µM (inactive); in the experiment with TK-10, 2.18 µM (inactive); with SNB-75, 6.19 µM (inactive); with SK-MEL-5 it was 0.764 µM (active). Also, the GI50 in the experiment on A549 was 1.48 µM (inactive); with IGROV-1, 1.6 µM (inactive); in the experiment with HCC 2998, 0.703 µM (active); with MDA-N, 1.47 µM (inactive); with SR, 2.44 µM (inactive); in the experiment with HOP-92 it was 0.427 µM (active). Moreover, the GI50 in the experiment with NCI-H522 was 0.681 µM (active).

Source of the values: ChEMBL document CHEMBL1201862, “PubChem BioAssay data set” (2004).
